# Patent US9598423B2 (BRISTOL-MYERS SQUIBB COMPANY, priority 2013, dated 2017)
# Target: CK1ε (Homo sapiens (Human), UniProt P49674)
# Assay: CK1ε kinase assay (Caliper LABCHIP electrophoretic separation of fluoresceinated peptide substrate and product)
# Type: biochemical
# Conditions: 200 pM CK1ε, 50 μM ATP, 1.5 μM peptide substrate, 22 hours at room temperature; read-out: CK1ε (IC50)
# Method: (§1) CK1ε and CK1δ Kinase Assays
# (§2) The kinase assay was performed in V-bottom 384-well plates. […] The reaction was incubated at room temperature for 22 hours and terminated by adding 45 μl of 35 mM EDTA to each sample. The reaction mixture was analyzed on the Caliper LABCHIP®3000 (Caliper, Hopkinton, Mass.) by electrophoretic separation of the unphosphorylated substrate and phosphorylated product. […] Compounds were dissolved at 10 mM in dimethylsulfoxide (DMSO) and evaluated at eleven concentrations. IC50 values were derived by non-linear regression analysis.
# CK1ε, sequence (P49674 whole entry): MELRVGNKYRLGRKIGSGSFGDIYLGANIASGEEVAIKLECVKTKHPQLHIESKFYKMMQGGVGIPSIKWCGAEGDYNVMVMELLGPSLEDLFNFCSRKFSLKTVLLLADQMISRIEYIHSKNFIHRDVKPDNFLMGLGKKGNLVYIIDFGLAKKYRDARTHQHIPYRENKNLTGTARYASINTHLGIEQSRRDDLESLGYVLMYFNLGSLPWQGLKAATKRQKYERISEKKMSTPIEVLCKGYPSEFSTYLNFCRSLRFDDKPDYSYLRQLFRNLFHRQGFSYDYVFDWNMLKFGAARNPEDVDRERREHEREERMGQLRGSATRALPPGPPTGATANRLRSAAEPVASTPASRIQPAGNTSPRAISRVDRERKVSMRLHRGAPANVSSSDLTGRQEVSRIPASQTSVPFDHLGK
row,SMILES,IC50 [nM]
1,"NC(=O)c1c(-c2cccc(F)c2)nn2c1CN(C(=O)NC13C[C@@H]4CC1C[C@@H](C4)C3)CC2 [Compound 23, 2-(3-Fluorophenyl)-N^5-((2R,5S)-octahydro-2,5-methanopentalen-6a-yl)-6,7-dihydropyrazolo[1,5-a]pyrazine-3,5(4H)-dicarboxamide]",0.01 to 10
2,"Cc1cc(C)cc(-c2nn3c(c2C(N)=O)CN(C(=O)NC(C)(C)C)CC3)c1 [Compound 128, N^5-(tert-Butyl)-2-(3,5-dimethylphenyl)-6,7-dihydropyrazolo[1,5-a]pyrazine-3,5(4H)-dicarboxamide]",0.01 to 10
3,"NC(=O)c1c(-c2ccc(F)c(Cl)c2)nn2c1CN(C(=O)Nc1ccc3ccncc3c1)CC2 [Compound 196, 2-(3-Chloro-4-fluorophenyl)-N^5-(isoquinolin-7-yl)-6,7-dihydropyrazolo[1,5-a] pyrazine-3,5(4H)-dicarboxamide]",0.01 to 10
4,"Cc1cc(-c2nn3c(c2C(N)=O)CN(C(=O)Nc2ccc(C#N)c(C)c2)CC3)ccc1F [Compound 239, N^5-(4-Cyano-3-methylphenyl)-2-(4-fluoro-3-methylphenyl)-6,7-dihydropyrazolo[1,5-a]pyrazine-3,5(4H)-dicarboxamide]",0.01 to 10
5,"N#Cc1ccc(NC(=O)N2CCn3nc(-c4ccc(C5CC5)c(Cl)c4)c(C(N)=O)c3C2)cc1 [Compound 258, 2-(3-Chloro-4-cyclopropylphenyl)-N^5-(4-cyanophenyl)-6,7-dihydropyrazolo[1,5-a]pyrazine-3,5(4H)-dicarboxamide]",0.01 to 10
6,"CN(C)c1cc(Cl)cc(-c2nn3c(c2C(N)=O)CN(C(=O)Nc2ccc(C#N)cc2)CC3)c1 [Compound 265, 2-(3-Chloro-5-(dimethylamino)phenyl)-N^5-(4-cyanophenyl)-6,7-dihydropyrazolo[1,5-a]pyrazine-3,5(4H)-dicarboxamide]",0.01 to 10
7,"Cc1cc(NC(=O)N2CCn3nc(-c4cc(Cl)cc(N(C)C)c4)c(C(N)=O)c3C2)ccc1C#N [Compound 267, 2-(3-Chloro-5-(dimethylamino)phenyl)-N^5-(4-cyano-3-methylphenyl)-6,7-dihydropyrazolo[1,5-a] pyrazine-3,5(4H)-dicarboxamide]",0.01 to 10
8,"CN(C)c1cc(Cl)cc(-c2nn3c(c2C(N)=O)CN(C(=O)Nc2ccc(C#N)c(Cl)c2)CC3)c1 [Compound 268, N^5-(3-Chloro-4-cyanophenyl)-2-(3-chloro-5-(dimethyl-amino)phenyl)-6,7-dihydropyrazolo[1,5-a] pyrazine-3,5(4H)-dicarboxamide]",0.01 to 10
9,"CN(C)c1cc(Cl)cc(-c2nn3c(c2C(N)=O)CN(C(=O)Nc2ccc(C#N)c(F)c2)CC3)c1 [Compound 269, 2-(3-Chloro-5-(dimethylamino)phenyl)-N^5-(4-cyano-3-fluorophenyl)-6,7-dihydropyrazolo[1,5-a] pyrazine-3,5(4H)-dicarboxamide]",0.01 to 10
10,"N#Cc1ccc(NC(=O)N2CCn3nc(-c4cnc(F)c(Cl)c4)c(C(N)=O)c3C2)cc1F [Compound 295, 2-(5-Chloro-6-fluoropyridin-3-yl)-N^5-(4-cyano-3-fluorophenyl)-6,7-dihydropyrazolo[1,5-a] pyrazine-3,5(4H)-dicarboxamide]",0.01 to 10
11,"N#Cc1ccc(NC(=O)N2CCn3nc(-c4cc(Cl)c5cncn5c4)c(C(N)=O)c3C2)cc1 [Compound 308, 2-(8-Chloroimidazo[1,5-a]pyridin-6-yl)-N-(4-cyanophenyl)-6,7-dihydropyrazolo[1,5-a]pyrazine-3,5(4H)-dicarboxamide]",0.01 to 10
12,"N#Cc1ccc(NC(=O)N2CCn3nc(-c4cc(Cl)c5ocnc5c4)c(C(N)=O)c3C2)cc1 [Compound 309, 2-(7-Chlorobenzo[d]oxazol-5-yl)-N^5-(4-cyanophenyl)-6,7-dihydropyrazolo[1,5-a]pyrazine-3,5(4H)-dicarboxamide]",0.01 to 10
13,"N#Cc1ccc(NC(=O)N2CCn3nc(-c4cc(Cl)c5[nH]ncc5c4)c(C(N)=O)c3C2)cc1 [Compound 315, 2-(7-Chloro-1H-indazol-5-yl)-N^5-(4-cyanophenyl)-6,7-dihydropyrazolo[1,5-a]pyrazine-3,5(4H)-dicarboxamide]",0.01 to 10

# Continued, values first:
row,IC50 [nM],SMILES
1,0.01 to 10,"N#Cc1ccc(NC(=O)N2Cc3c(C(N)=O)c(-c4ccc(F)c(Cl)c4)nn3C(CF)C2)cc1Cl (single isomer, unassigned) [Compound A15, N^5-(3-Chloro-4-cyanophenyl)-2-(3-chloro-4-fluorophenyl)-7-(fluoromethyl)-6,7-dihydropyrazolo[1,5-a]pyrazine-3,5(4H)-dicarboxamide]"
2,0.01 to 10,"N#Cc1ccc(NC(=O)N2Cc3c(C(N)=O)c(-c4ccc(F)c(Cl)c4)nn3[C@H](CF)C2)cc1F [Compound A16, (S)-2-(3-Chloro-4-fluorophenyl)-N^5-(4-cyano-3-fluorophenyl)-7-(fluoromethyl)-6,7-dihydropyrazolo[1,5-a]pyrazine-3,5(4H)-dicarboxamide]"
3,0.01 to 10,"N#Cc1ccc(NC(=O)N2Cc3c(C(N)=O)c(-c4ccc(F)c(Cl)c4)nn3[C@@H](CF)C2)cc1F [Compound A17, (R)-2-(3-Chloro-4-fluorophenyl)-N^5-(4-cyano-3-fluorophenyl)-7-(fluoromethyl)-6,7-dihydropyrazolo[1,5-a]pyrazine-3,5(4H)-dicarboxamide]"
4,0.01 to 10,"N#Cc1ccc(NC(=O)N2Cc3c(C(N)=O)c(-c4ccc(F)c(Cl)c4)nn3[C@H](C(F)F)C2)cc1 [Compound A20, (S)-2-(3-Chloro-4-fluorophenyl)-N^5-(4-cyanophenyl)-7-(difluoromethyl)-6,7-dihydropyrazolo[1,5-a]pyrazine-3,5(4H)-dicarboxamide]"
5,0.01 to 10,"N#Cc1ccc(NC(=O)N2Cc3c(C(N)=O)c(-c4ccc(F)c(Cl)c4)nn3[C@@H](C(F)F)C2)cc1 [Compound A21, (R)-2-(3-Chloro-4-fluorophenyl)-N^5-(4-cyanophenyl)-7-(difluoromethyl)-6,7-dihydropyrazolo[1,5-a]pyrazine-3,5(4H)-dicarboxamide]"
6,0.01 to 10,"CC1CN(C(N)=O)Cc2c(C(=O)NC(C)(C)C)c(-c3ccc(Cl)c(Cl)c3)nn21 (stereo not drawn) [Compound A33, N-(tert-Butyl)-2-(3,4-dichlorophenyl)-7-methyl-6,7-dihydropyrazolo[1,5-a]pyrazine-3,5(4H)-dicarboxamide]"
7,0.01 to 10,"N#CC1(c2ccc(NC(=O)N3CCn4nc(-c5ccc(F)c(Cl)c5)c(C(N)=O)c4C3)cc2)CC1 [Compound A54, 2-(3-Chloro-4-fluorophenyl)-N^5-(4-(1-cyanocyclopropyl)phenyl)-6,7-dihydropyrazolo[1,5-a]pyrazine-3,5(4H)-dicarboxamide]"

# Same assay, conditions: CK1ε (IC50, nM)
row,SMILES,IC50 [nM]
1,"CCC1CN(C(=O)Nc2ccc(C#N)cc2)Cc2c(C(N)=O)c(-c3ccc(F)c(Cl)c3)nn21 (single isomer, unassigned) [Compound A68, 2-(3-Chloro-4-fluorophenyl)-N^5-(4-cyanophenyl)-7-ethyl-6,7-dihydropyrazolo[1,5-a]pyrazine-3,5(4H)-dicarboxamide]",0.01 to 10

# Same assay, conditions: read-out: CK1ε (IC50)
row,SMILES,IC50 [nM]
1,"CCC1CN(C(=O)Nc2ccc(C#N)cc2)Cc2c(C(N)=O)c(-c3ccc(F)c(Cl)c3)nn21 (single isomer, unassigned) [Compound A69, 2-(3-Chloro-4-fluorophenyl)-N^5-(4-cyanophenyl)-7-ethyl-6,7-dihydropyrazolo[1,5-a]pyrazine-3,5(4H)-dicarboxamide]",0.01 to 10
2,"N#Cc1ccc(NC(=O)N2CCn3nc(-c4cnc(F)c(Cl)c4)c(C(N)=O)c3C2)cc1Cl [Compound 296, N^5-(3-Chloro-4-cyanophenyl)-2-(5-chloro-6-fluoropyridin-3-yl)-6,7-dihydropyrazolo[1,5-a] pyrazine-3,5(4H)-dicarboxamide]",0.01 to 10

# Target: CK1δ (Homo sapiens (Human), UniProt P48730)
# Sequence (P48730 whole entry): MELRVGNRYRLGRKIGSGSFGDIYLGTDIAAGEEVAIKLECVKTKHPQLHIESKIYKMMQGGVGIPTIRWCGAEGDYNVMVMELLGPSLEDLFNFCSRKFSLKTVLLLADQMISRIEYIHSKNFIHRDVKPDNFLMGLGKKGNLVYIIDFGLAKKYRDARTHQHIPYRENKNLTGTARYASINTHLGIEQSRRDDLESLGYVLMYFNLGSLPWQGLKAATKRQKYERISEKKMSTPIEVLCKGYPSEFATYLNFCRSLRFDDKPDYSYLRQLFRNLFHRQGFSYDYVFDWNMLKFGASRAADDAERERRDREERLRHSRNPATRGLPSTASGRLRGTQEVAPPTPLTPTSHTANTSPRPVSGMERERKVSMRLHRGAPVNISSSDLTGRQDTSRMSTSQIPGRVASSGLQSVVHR
# Assay: CK1δ kinase assay (Caliper LABCHIP electrophoretic separation of fluoresceinated peptide substrate and product)
# Type: biochemical
# Conditions: 200 pM CK1δ, 50 μM ATP, 1.5 μM peptide substrate, 22 hours at room temperature; read-out: CK1δ (IC50)
# Method: as §1, §2
row,IC50 [nM],SMILES
1,0.01 to 10,"NC(=O)c1c(-c2ccc(F)cc2)nn2c1CN(C(=O)NC1CCCCC1)CC2 [Compound 3, N^5-Cyclohexyl-2-(4-fluorophenyl)-6,7-dihydropyrazolo[1,5-a]pyrazine-3,5(4H)-dicarboxamide]"
2,0.01 to 10,"CC(C)(NC(=O)N1CCn2nc(-c3cccc(F)c3)c(C(N)=O)c2C1)c1ccc(F)cc1 [Compound 17, 2-(3-Fluorophenyl)-N^5-(2-(4-fluorophenyl)propan-2-yl)-6,7-dihydropyrazolo[1,5-a]pyrazine-3,5(4H)-dicarboxamide]"
3,0.01 to 10,"CC(C)(NC(=O)N1CCn2nc(-c3cccc(F)c3)c(C(N)=O)c2C1)c1ccccc1 [Compound 25, 2-(3-Fluorophenyl)-N^5-(2-phenylpropan-2-yl)-6,7-dihydropyrazolo[1,5-a]pyrazine-3,5(4H)-dicarboxamide]"
4,0.01 to 10,"NC(=O)c1c(-c2cccc(F)c2)nn2c1CN(C(=O)Nc1ccc(F)c(F)c1)CC2 [Compound 29, N^5-(3,4-Difluorophenyl)-2-(3-fluorophenyl)-6,7-dihydropyrazolo[1,5-a]pyrazine-3,5(4H)-dicarboxamide]"
5,0.01 to 10,"NC(=O)c1c(-c2cccc(F)c2)nn2c1CN(C(=O)Nc1cc(Cl)ccc1F)CC2 [Compound 33, N^5-(5-Chloro-2-fluorophenyl)-2-(3-fluorophenyl)-6,7-dihydropyrazolo[1,5-a]pyrazine-3,5(4H)-dicarboxamide]"
6,0.01 to 10,"COc1ccc(NC(=O)N2CCn3nc(-c4cccc(F)c4)c(C(N)=O)c3C2)cc1OC [Compound 66, N^5-(3,4-Dimethoxyphenyl)-2-(3-fluorophenyl)-6,7-dihydropyrazolo[1,5-a]pyrazine-3,5(4H)-dicarboxamide]"
7,0.01 to 10,"NC(=O)c1c(-c2cccc(F)c2)nn2c1CN(C(=O)Nc1cccnc1)CC2 [Compound 68, 2-(3-Fluorophenyl)-N^5-(pyridin-3-yl)-6,7-dihydropyrazolo[1,5-a]pyrazine-3,5(4H)-dicarboxamide]"
